{"source": "patent US20150125471A1", "about": "“METHOD AND PHARMACEUTICAL COMPOSITION FOR USE IN THE TREATMENT AND DIAGNOTIC OF ANEMIA OF INFLAMMATION” (INSERM (INSTITUT NATIONAL DE LA SANTE ET DE LA RECHERCHE …, priority 2012, published 2015)", "key": {"[1]": {"test_system": "SMAD1/5/8 phosphorylation in HepG2 cells", "experiment": "SMAD1/5/8 phosphorylation in HepG2 cells by immunoblot", "assay_type": "cell-based, human", "details": "2 h30, 4 or 6 hours; for SMAD1/5/8 phosphorylation: HepG2, 50 ng/ml", "procedure": "(§1) Human hepatoma cells (HepG2; ATCC) were cultured in high glucose Dulbecco's Modified Eagle Media (DMEM) supplemented with 10% fetal calf serum (FCS) and antibiotics. For stimulation experiments, cells were transferred to 6-well dishes and starved with DMEM containing 0.1% FCS for 5 hours before exposure to IL-6 (50 ng/ml; R&D Systems) and/or activin A (50 ng/ml; R&D) or activin B (50 ng/ml; R&D) for 1 h30, 2 h30, 4 h, 6 h, and 24 h. The pharmacological inhibitor LDN-193189 (100 nM; Axon Medchem), ALK2-Fc (1 μg/mL; R&D), or ALK3-Fc (1 μg/mL; R&D) were added 30 min prior to activin B exposure.\n(§2) Livers were homogenized in a FastPrep®-24 Instrument (MP Biomedicals) for 15 sec at 4 m/s. The lysis buffer (50 mM Tris-HCl, pH 8, 150 mM NaCl, 5 mM EDTA, pH 8, 0.1% NP-40) included inhibitors of proteases (complete protease inhibitor cocktail, Roche Applied Science) and of phosphatases (phosphatase inhibitor cocktail 2, Sigma-Aldrich). Liver proteins were quantified using the Bio-Rad Protein Assay kit. HepG2 cells and mouse primary hepatocytes were lysed in RIPA buffer (Sigma-Aldrich) supplemented with protease and phosphatase inhibitors, and proteins were quantified using the Bio-Rad DC Protein Assay.\nFresh protein extracts were diluted in Laemmli buffer (Sigma-Aldrich), incubated for 5 minutes at 95° C., and subjected to SDS-PAGE. Proteins were then transferred to PVDF membranes (Millipore). Membranes were blocked with 5% of dry milk in TBS-T buffer (10 mM Tris-HCl, pH 7.5, 150 mM NaCl, 0.15% Tween 20). They were incubated with rabbit antibodies to phospho-Smad1/5/8 (Cell Signaling Technology) or phospho-Stat3 (Cell Signaling) at 4° C. overnight, and washed with TBS-T buffer. Following incubation with a goat anti-rabbit IgG antibody (Cell Signaling) conjugated to horseradish peroxidase (HRP), enzyme activity was visualized by an ECL-based detection system (Millipore). Blots were then stripped and reprobed with rabbit antibodies to Smad5 (Epitomics) or Stat3 (Cell Signaling) 2 hours at RT before incubation with the goat anti-rabbit HRP-linked antibody."}, "[2]": {"test_system": "Hepcidin (Hamp) mRNA in HepG2 cells", "experiment": "Hepcidin mRNA expression in HepG2 cells by qRT-PCR", "assay_type": "cell-based, human", "details": "for hepcidin mRNA expression increase / hepcidin −ΔΔCt ±SD: HepG2 cells, 50 ng/ml each, peak levels 4 hours after treatment", "procedure": "as §1\n(§3) Total RNA from mouse liver, human hepatoma cells, or mouse primary hepatocytes, was extracted using Trizol (Invitrogen). cDNA was synthesized using MMLV-RT (Promega). Quantitative PCR (Q-PCR) reactions were prepared with LightCycler® 480 DNA SYBR Green I Master reaction mix (Roche Diagnostics) and run in duplicate on a LightCycler® 480 Instrument (Roche Diagnostics).\n(§4) Means of −ΔCt (i.e., Ct Hprt−Ct target)±standard deviation (SD) were calculated for the different groups of mice. Means of −ΔCt values between LPS-challenged and unchallenged mice were compared by Student's t-tests. Because, in addition to inflammation, mouse genotype (wild-type versus Bmp6−/−) may also affect mean −ΔCt values, we used two-way analysis of variance (ANOVA) to test for the effect of both factors and their interaction. Differences between mean −ΔCt at a specific time point after LPS administration and mean −ΔCt at time 0 (−ΔΔCt±SD) were also calculated and point estimations of fold changes induced by LPS administration obtained by raising 2 to the power −ΔΔCt (Yuan et al., 2006). For HepG2 cells or mouse primary hepatocytes, −ΔΔCt values (i.e., −ΔCt treatment+ΔCt vehicle)±SD were obtained for each condition and means of −ΔΔCt were compared to 0 by Student's t-tests."}, "[3]": {"test_system": "Hepcidin (Hamp) mRNA in mouse primary hepatocytes", "experiment": "Hepcidin mRNA expression in mouse primary hepatocytes by qRT-PCR", "assay_type": "cell-based", "details": "for hepcidin mRNA increase / hepcidin −ΔΔCt ±SD: primary hepatocytes from Bmp6-deficient mice, 50 ng/ml each, 2 h30", "procedure": "(§5) Mouse primary hepatocytes were isolated from ten-week-old Bmp6-deficient mice using a collagenase perfusion protocol (Lin et al., 2007). The viable hepatocyte population was further purified by a Percoll gradient centrifugation. Hepatocytes were plated in 6-well collagen-coated plates at 7×10^5 cells per well and cultured in DMEM supplemented with 10% FCS and antibiotics for 18 hours. After serum starvation for 5 hours in 0.1% FCS, hepatocytes were stimulated with IL-6 (50 ng/ml) and/or activin B (50 ng/ml), or vehicle, in the presence or absence of LDN-193189 (l μM), and RNA was harvested 1, 2, 3, and 4 hours later.\nas §3, §4"}, "[4]": {"test_system": "Smad1/5/8 phosphorylation in mouse primary hepatocytes", "experiment": "Smad1/5/8 phosphorylation in mouse primary hepatocytes by immunoblot", "assay_type": "cell-based", "procedure": "as §5, §2\n(§6) Fresh protein extracts were diluted in Laemmli buffer (Sigma-Aldrich), incubated for 5 minutes at 95° C., and subjected to SDS-PAGE. […]"}, "[5]": {"test_system": "BMP type I receptors", "details": "100 nM; cited from earlier work"}, "[6]": {"test_system": "hepcidin expression", "details": "cultured hepatoma-derived cells, zebrafish, mouse, or rat; cited from earlier work"}, "[7]": {"test_system": "STAT3 phosphorylation in HepG2 cells", "experiment": "STAT3 phosphorylation in HepG2 cells by immunoblot", "assay_type": "cell-based, human", "details": "HepG2, 50 ng/ml", "procedure": "as §1, §2\nFresh protein extracts were diluted in Laemmli buffer (Sigma-Aldrich), incubated for 5 minutes at 95° C., and subjected to SDS-PAGE. Proteins were then transferred to PVDF membranes (Millipore). […]"}, "[8]": {"test_system": "Stat3 signaling in mouse primary hepatocytes", "experiment": "Stat3 signaling in mouse primary hepatocytes by immunoblot", "assay_type": "cell-based", "details": "50 ng/ml, 2 h30", "procedure": "as §5, §2, §6"}}, "data": [{"compound": "activin A", "values": [{"measurement": "SMAD1/5/8 phosphorylation", "setting": "[1]", "result": "not shared with activin A"}]}, {"compound": "c1ccc2c(-c3cnn4cc(-c5ccc(N6CCNCC6)cc5)cnc34)ccnc2c1", "note": "[LDN-193189, reference compound]", "values": [{"measurement": "effect on induction of hepcidin gene expression by activin B", "setting": "[2]; HepG2, 100 nM added 30 min before activin B (50 ng/ml), 2 h30, 4 or 6 hours after stimulation", "result": "completely abolished"}, {"measurement": "effect on Smad1/5/8 phosphorylation induced by activin B", "setting": "[1]; HepG2, 100 nM added 30 min before activin B (50 ng/ml)", "result": "completely abolished"}, {"measurement": "effect on upregulation of Hamp gene expression by activin B", "setting": "[3]; mouse primary hepatocytes, 1 μM, activin B 50 ng/ml", "result": "prevented"}, {"measurement": "effect on Smad1/5/8 phosphorylation induced by activin B", "setting": "[4]; 1 μM, activin B 50 ng/ml for 2 h30", "result": "prevented induction of Smad1/5/8 phosphorylation"}, {"measurement": "activity of BMP type I receptors", "setting": "[5]", "result": "inhibit activity of BMP type I receptors"}, {"measurement": "induction of hepcidin expression by IL-6, turpentine, or group A streptococcal peptidoglycan-polysaccharide", "setting": "[6]", "result": "blocks induction of hepcidin expression"}]}, {"compound": "IL-6: interleukin-6 cytokine, R&D Systems", "values": [{"measurement": "hepcidin mRNA expression increase", "setting": "[2]", "result": "about 6 fold"}, {"measurement": "hepcidin −ΔΔCt ±SD", "setting": "[2]", "result": "2.63±0.26"}, {"measurement": "STAT3 phosphorylation", "setting": "[7]", "result": "induces STAT3 phosphorylation"}, {"measurement": "hepcidin mRNA increase", "setting": "[3]", "result": "about 1.8 fold"}, {"measurement": "hepcidin −ΔΔCt ±SD", "setting": "[3]", "result": "0.82±0.24"}, {"measurement": "Stat3 signaling", "setting": "[8]", "result": "strong activation of Stat3 signaling"}]}, {"compound": "activin B", "values": [{"measurement": "hepcidin mRNA expression increase", "setting": "[2]", "result": "about 13 fold"}, {"measurement": "hepcidin −ΔΔCt ±SD", "setting": "[2]", "result": "3.71±0.46"}, {"measurement": "SMAD1/5/8 phosphorylation", "setting": "[1]", "result": "induces the phosphorylation of the SMAD effectors 1, 5 and 8"}, {"measurement": "hepcidin mRNA increase", "setting": "[3]", "result": "about 7 fold"}, {"measurement": "hepcidin −ΔΔCt ±SD", "setting": "[3]", "result": "2.81±0.92"}, {"measurement": "SMAD1/5/8 phosphorylation", "setting": "[4]; 50 ng/ml, 2 h30", "result": "induces"}]}]}
